Our source for the EC50 values is patent US10407445B2, “Hepatitis C virus inhibitors” (ENANTA PHARMACEUTICALS, INC., priority 2013, dated 2019).

Assay type in all cases: cell-based
In one experiment the test system is HCV GT 1b replicon. Put plainly: HCV replicon assay, stable GT 1b replicon (Renilla luciferase). As to conditions: Hepatitis C virus, GT1B, 72 h. The procedure: (§1) The activity of compounds was determined against HCV replicons representing genotypes (GT) 1a, 1b, 2a, and 3a. To generate stable Huh-7.5-based cell lines, HCV replicons were engineered to express the Renilla luciferase reporter (hRluc) fused to the neomycin phosphotransferase (Neo) gene. GT2a and GT3a HCV replicons were based on the JFH-1 subgenomic replicon (Kato et al. 2003 Gastroenterology, 125:1808-1817), in which the NS5A gene was replaced with that of strains J6 and S52 (GT2a and G3a, respectively). The activity of compounds against GT1a replicons encoding NS5A mutations (M28T, Q30R, L31M, Y93C, and Y93H) was also determined in a transient replication assay. The parental GT1a and GT2a replicons (pH/SG-Neo(L+I) and pSG-Neo-JFH1, respectively) were licensed from Apath LLC (Saint Louis, Mo.). The parental GT 1b replicon (pFKi389lucubineo_3_3′_ET) was licensed from ReBLikon GmbH (Germany). HCV replicons were constructed by standard molecular biology techniques described below. All replicon constructs were verified by restriction enzyme digestion and DNA sequencing.
The hRluc-Neo cassette was PCR amplified from pF9 cytomegalovirus (CMV) hRluc-Neo Flexi(R) (Promega) using Accuprime Super Mix II (Invitrogen) and the following primers, which introduce restriction sites: […]
The amplification product was subcloned into pCR2.1-TOPO (Invitrogen). The resulting plasmid was digested with AscI and NotI, and the excised hRluc-Neo fragment was ligated using the Roche Quick Ligation Kit (Roche) into pFKi389lucubineo_3_3′_ET digested with the same enzymes.
Stable HCV replicon cell lines were grown in complete media (Dulbecco's modified Eagle medium [DMEM], 2 mM L-glutamine, 0.1 mM essential amino acids, 1 mM sodium pyruvate, 10% heat inactivated fetal bovine serum) with the addition 500 μg/ml […] (G418). Huh7-lunet cells were maintained in the same medium without the addition of G418. Cells were routinely passaged at a dilution of 1:4 two times a week. The assay medium for both luciferase reporter HCV replicon and cytotoxicity assays used phenol red-free DMEM and lacked G418. For each stable replicon assay, a sixteen point half-log dilution series of compound was stamped (0.5 ul compound per well) into three replica 384-well plates, to which cells were added directly (4000 cells/well). For the transient replication assay, Huh7-lunet cells in ice-cold phosphate buffered saline (PBS) were electroporated (BioRad electroporator; 950 uF, 270V) with 10 ug purified in vitro transcribed HCV replicon RNA, followed by resuspension in complete media and plating (8000 cells/well) into compound stamped 384-well plates. Luciferase activity of compound-treated cells was measured relative to DMSO-treated cells after 72 h incubation using RENILLA-GLO™ Luciferase Assay (Promega). Cytotoxicity (CC50) in the GT1b replicon cell line was analyzed using CELL TITER-GLO™ (Promega).
The compounds of the present invention can be effective against the HCV 1b genotype. It should also be understood that the compounds of the present invention can inhibit multiple genotypes of HCV. In one embodiment compound of the present invention are active against the 1a, 1b, 2a, 2b, 3a, 4a, and 5a genotypes. In another embodiment compound of the present invention are active against the HCV resistant mutants. […] EC50s are in pM against HCV GT 1a and GT 1b; and nM against GT 2a-J6, GT 3a and GT1a resistant variants (M28T, Q30R, L31V, Y93C and Y93H).

The next experiment has as its system HCV GT 2a-J6 replicon. Put plainly: HCV replicon assay, GT2a chimeric replicon expressing NS5A from GT2a strain J6. The following applies: Hepatitis C virus, 72 h, read-out: EC50 2a J6. The method, then: as §1
The plasmid pSG-hRlucNeo-JFH1 was generated from pSG-Neo-JFH1 (Kato et al. 2003, Gastroentrology 125:1808-1817). A fragment containing the JFH-1 5′ NTR—hRluc-Neo gene and two unique restriction sites (AgeI and PmeI) was synthesized (Integrated DNA Technologies, Coralville, Iowa). The resulting synthetic plasmid was digested with AgeI and PmeI and the excised fragment (5′NTR-hRluc-Neo) was ligated into pSG-Neo-JFH1 digested with the same enzymes to generate pSG-hRlucNeo-JFH1. To allow expression of heterologous NS5A sequences, an NS5A shuttle vector was generated from pSG-Neo-JFH1, in which the entire coding sequence of NS5A plus the first eight codons of NS5B were replaced with an AfeI restriction site. This was done by Infusion cloning (Clontech, Mountain View, Calif.) from two PCR products that were generated using pSG-Neo-JFH1 as a template and the following primer pairs:
Underlined sequences denote regions of overlap necessary for Infusion cloning. Purified PCR products were cloned directly into an NsiI/SnaBI digested pSG-Neo-JFH1 following the manufacturer's instructions to generate pSG-Neo-JFH1-5Ashuttle. The 2023 base pair AgeI/PmeI fragment from pSG-hRlucNeo-JFH1 was then ligated into pSG-Neo-JFH1-5Ashuttle to generate pSG-hRlucNeo-JFH1-5Ashuttle. To generate the 2a-2a-(J6) and 2a-3a-(S52) NS5A chimeric replicons, the full length NS5A sequences from GT2a strain J6 (accession AF177036) and GT3a strain S52 (accession GU814263), with the addition of the first eight codons of JFH-1 NS5B (5′-TCCATGTCATACTCCTGGACCGGG-3′), were synthesized by GeneArt (Life Technologies, Carlsbad Calif.). J6 and S52 NS5A sequences were then PCR amplified from the synthetic clones using the appropriate forward primer:
Underlined sequences denote regions of overlap with pSG-hRlucNeo-JFH1-5Ashuttle necessary for Infusion cloning. Purified PCR products were directly cloned into AfeI-digested shuttle vector by Infusion cloning following the manufacturer's instructions.
Stable HCV replicon cell lines were grown in complete media (Dulbecco's modified Eagle medium [DMEM], 2 mM L-glutamine, 0.1 mM essential amino acids, 1 mM sodium pyruvate, 10% heat inactivated fetal bovine serum) with the addition 500 μg/ml […] (G418). Huh7-lunet cells were maintained in the same medium without the addition of G418. Cells were routinely passaged at a dilution of 1:4 two times a week. The assay medium for both luciferase reporter HCV replicon and cytotoxicity assays used phenol red-free DMEM and lacked G418. For each stable replicon assay, a sixteen point half-log dilution series of compound was stamped (0.5 ul compound per well) into three replica 384-well plates, to which cells were added directly (4000 cells/well). […]

Experiment [1] relates to GT1a replicon encoding NS5A mutation M28T. Put plainly: Transient replication assay, GT1a replicon with NS5A mutation M28T. The following applies: Hepatitis C virus, read-out: EC50 1a M28T.
The test system of experiment [2] is GT1a replicon encoding NS5A mutation L31V. The experiment in a line: Transient replication assay, GT1a replicon with NS5A mutation L31V. The following applies: Hepatitis C virus, read-out: EC50 1a L31V.
For experiment [3], the system named is GT1a replicon encoding NS5A mutation Y93C. The experiment in a line: Transient replication assay, GT1a replicon with NS5A mutation Y93C. As to conditions: Hepatitis C virus, read-out: EC50 1a Y93C.

As to `COC(=O)N[C@H](C(=O)N1C[C@]2(CCCOC2)C[C@H]1c1nc2ccc3cc(-c4ccc5c(ccc6nc([C@@H]7C[C@@H]8COC[C@@H]8N7C(=O)[C@@H](NC(=O)OC)C(C)C)[nH]c65)c4)ccc3c2[nH]1)C(C)C` [Compound 36], the EC50 worked out at 0.051 nM with HCV GT 1b replicon; 0.3 nM in the experiment on HCV GT 2a-J6 replicon; 0.08 nM in experiment [1]; 0.2 nM in experiment [2]; 0.06 nM in experiment [3].

For `COC(=O)N[C@H](C(=O)N1C[C@]2(CCCOC2)C[C@H]1c1ncc(-c2ccc(-c3ccc(-c4cnc([C@@H]5C[C@@H]6CCC[C@@H]6N5C(=O)[C@@H](NC(=O)OC)C(C)C)[nH]4)cc3)cc2)[nH]1)C(C)C` [Compound 37], the EC50 came to 0.009 nM in the experiment with HCV GT 1b replicon; 0.7 nM in the experiment on HCV GT 2a-J6 replicon; 0.03 nM in experiment [1]; 0.5 nM in experiment [2]; 1 nM in experiment [3].

`COC(=O)N[C@H](C(=O)N1[C@H](c2nc3ccc4cc(-c5ccc(-c6cnc([C@@H]7C[C@@]8(CCCOC8)CN7C(=O)[C@@H](NC(=O)OC)C7C[C@@H](C)O[C@H](C)C7)[nH]6)cc5)ccc4c3[nH]2)C[C@@H]2CCCC[C@@H]21)C(C)C` (stereo in doubt) [Compound 38]: the EC50 in the experiment with HCV GT 1b replicon stood at 0.015 nM; with HCV GT 2a-J6 replicon, 0.09 nM; in experiment [1], 0.002 nM; in experiment [2], 0.002 nM; in experiment [3], 0.004 nM.

For the compound `COC(=O)N[C@H](C(=O)N1CCC[C@H]1c1nc2c([nH]1)-c1ccc(-c3ccc4c(ccc5nc([C@@H]6C[C@@]7(CCCOC7)CN6C(=O)[C@@H](NC(=O)OC)C(C)C)[nH]c54)c3)cc1OC2)C(C)C` [Compound 25], the concentration giving a half-maximal response (EC50) with HCV GT 1b replicon was determined as 0.068 nM; in the experiment on HCV GT 2a-J6 replicon, 0.8 nM; in experiment [1], 0.5 nM; in experiment [2] it was 0.6 nM; in experiment [3], 0.09 nM.

In the case of `COC(=O)N[C@H](C(=O)N1CC2(CC2)C[C@H]1c1nc2ccc3cc(-c4ccc5c(ccc6nc([C@@H]7C[C@@]8(CCCOC8)CN7C(=O)[C@@H](NC(=O)OC)C(C)C)[nH]c65)c4)ccc3c2[nH]1)C(C)C` [Compound 7], the EC50 with HCV GT 1b replicon was 0.012 nM; in the experiment on HCV GT 2a-J6 replicon it was 0.3 nM; in experiment [1] it was 0.02 nM; in experiment [2], 0.1 nM; in experiment [3] it was 0.02 nM.

For `COC(=O)N[C@H](C(=O)N1C[C@]2(CCCOC2)C[C@H]1c1nc2ccc3cc(-c4ccc5c(ccc6nc([C@@H]7C[C@@H]8C[C@@H]8N7C(=O)[C@@H](NC(=O)OC)C(C)C)[nH]c65)c4)ccc3c2[nH]1)C(C)C` [Compound 21], the EC50 came to 0.03 nM in the experiment with HCV GT 1b replicon; 2 nM in the experiment with HCV GT 2a-J6 replicon; 0.2 nM in experiment [1]; 1 nM in experiment [2]; 0.09 nM in experiment [3].

Regarding `COC(=O)N[C@H](C(=O)N1C[C@]2(CCCOC2)C[C@H]1c1ncc(-c2ccc(-c3ccc4c(c3)OCc3nc([C@@H]5CCCN5C(=O)[C@@H](NC(=O)OC)C(C)C)[nH]c3-4)cc2)[nH]1)C(C)C` [Compound 30], the concentration for a half-maximal effect (EC50) in the experiment with HCV GT 1b replicon is 0.045 nM; with HCV GT 2a-J6 replicon, 1 nM; in experiment [1], 0.6 nM; in experiment [2], 1 nM; in experiment [3] it was 0.5 nM.

As to `COC(=O)N[C@H](C(=O)N1C[C@]2(CCCO2)C[C@H]1c1ncc(-c2ccc(-c3ccc4c(ccc5nc([C@@H]6CCCN6C(=O)[C@@H](NC(=O)OC)C(C)C)[nH]c54)c3)cc2)[nH]1)C(C)C` [Example 81], the EC50 in the experiment with HCV GT 1b replicon is 0.013 nM; in the experiment on HCV GT 2a-J6 replicon, 45 nM; in experiment [1] it was 0.3 nM; in experiment [2], 0.4 nM; in experiment [3] it was 0.2 nM.

Turning to `COC(=O)N[C@H](C(=O)N1C[C@]2(CCCOC2)C[C@H]1c1ncc(-c2ccc(-c3ccc4c(ccc5nc([C@@H]6C[C@@H]7COC[C@@H]7N6C(=O)[C@@H](NC(=O)OC)C(C)C)[nH]c54)c3)cc2)[nH]1)C(C)C` [Compound 35], the EC50 with HCV GT 1b replicon was found to be 0.049 nM; in the experiment with HCV GT 2a-J6 replicon, 2 nM; in experiment [1], 0.2 nM; in experiment [2] it was 0.5 nM; in experiment [3] it was 0.4 nM.

Consider `COC(=O)N[C@H](C(=O)N1CCC[C@H]1c1ncc(-c2ccc(-c3ccc4c(ccc5nc([C@@H]6C[C@]7(CCOC7)CN6C(=O)[C@@H](NC(=O)OC)C(C)C)[nH]c54)c3)cc2)[nH]1)C(C)C` [Compound 51], for which the EC50 in the experiment on HCV GT 1b replicon is 0.016 nM; in the experiment on HCV GT 2a-J6 replicon, 4 nM; in experiment [1], 0.1 nM; in experiment [2] it was 0.4 nM; in experiment [3], 0.07 nM.

As for `COC(=O)N[C@H](C(=O)N1C[C@]2(CCCOC2)C[C@H]1c1nc2ccc3cc(-c4ccc(-c5cnc([C@@H]6C[C@@H]7C[C@@H]7N6C(=O)[C@@H](NC(=O)OC)C(C)C)[nH]5)cc4)ccc3c2[nH]1)C(C)C` [Compound 22], the EC50 with HCV GT 1b replicon was 0.008 nM; with HCV GT 2a-J6 replicon, 6 nM; in experiment [1] it was 0.1 nM; in experiment [2], 0.9 nM; in experiment [3], 0.3 nM.

As to `COC(=O)N[C@H](C(=O)N1C[C@@]2(CCOC2)C[C@H]1c1ncc(-c2ccc(-c3ccc4c(ccc5nc([C@@H]6C[C@]7(CCOC7)CN6C(=O)[C@@H](NC(=O)OC)C(C)C)[nH]c54)c3)cc2)[nH]1)C(C)C` [Compound 49], the 50% effective concentration (EC50) with HCV GT 1b replicon is 0.009 nM; with HCV GT 2a-J6 replicon it was 23 nM; in experiment [1], 1 nM; in experiment [2] it was 5 nM; in experiment [3], 0.4 nM.
